Reference: the OPERA property sets (Mansouri et al. 2018)

Row | Structure (SMILES) | logP
1 | O=C(Nc1ccc2nn(C3CCCC3)nc2c1)c1ccc(Cl)c(Cl)c1 | 5.32
2 | COc1cc(C(=O)Nc2ccc3nn(C4CCCC4)nc3c2)cc(OC)c1OC | 3.87
3 | CC(=O)Nc1ccc2nn(C3CCCC3)nc2c1 | 2.45
4 | O=C(Nc1ccc2nn(C3CCCC3)nc2c1)c1ccccc1 | 3.85
5 | O=[N+]([O-])c1ccc(S(=O)(=O)Nc2ccc3nn(C4CCCC4)nc3c2)cc1 | 3.82
6 | O=C(Nc1ccc2nn(C3CCCC3)nc2c1)C(Cl)(Cl)Cl | 4.12
7 | CC(C)(C)C(=O)Nc1ccc2nn(C3CCCC3)nc2c1 | 3.4
8 | CCOC(=O)Nc1ccc2nn(C3CCCC3)nc2c1 | 3.43
9 | CS(=O)(=O)Nc1ccc2nn(C3CCCC3)nc2c1 | 2.44
10 | CC(C)COC(=O)Nc1ccc2nn(C3CCCC3)nc2c1 | 4.28
11 | Nc1ccc(S(=O)(=O)Nc2ccc3nn(C4CCCC4)nc3c2)cc1 | 2.48
12 | O=C(Nc1ccc2nn(C3CCCC3)nc2c1)c1ccc(Cl)cc1 | 4.11
13 | O=C(CCl)Nc1ccc2nn(C3CCCC3)nc2c1 | 2.78
14 | O=C(Nc1ccc2nn(C3CCCC3)nc2c1)c1ccc(C(F)(F)F)cc1 | 4.95
15 | O=C(Nc1ccc2nn(C3CCCC3)nc2c1)C(Cl)Cl | 3.4
16 | O=C(Nc1ccc2nn(C3CCCC3)nc2c1)c1ccc([N+](=O)[O-])cc1 | 3.75
17 | Cc1ccc(S(=O)(=O)Nc2ccc3nn(C4CCCC4)nc3c2)cc1 | 3.91
